Measurements reported in US7074789B2, “Kinase inhibitors” (Amgen Inc., priority 1999, dated 2006).

Tests used:
Format in all cases: biochemical
c-Met = biological target: T1, c-Met (Homo sapiens, UniProt P08581); assay: Kinase inhibition assay (33P transfer), c-Met; conditions: Table 2, kinase inhibition class; read-out: Met-1
T1 construct: Kinases are expressed as either kinase domains or full length constructs; made in house
How it was run: (§1)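 Using immobilised substrate copolymers (poly(Glu,Tyr) 4:1; poly(Arg,Ser) 3:1) and [33P]ATP, purified fusion kinases were allowed to react; plates were then rinsed in 0.5% phosphoric acid and counted in a scintillation detector. Half-maximal inhibition of label transfer defines IC50.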

Kdr = biological target: T2, Kdr (Homo sapiens, UniProt P35968); assay: Kinase inhibition assay (33P transfer), Kdr; conditions: read-out: KDR-1
T2 construct: Kinases are expressed as either kinase domains or full length constructs; made in house
How it was run: (§2)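 Steps: express kinase as GST or polyHistidine fusion in E. coli or High Five cells; optionally co-express or mix with regulatory polypeptides; incubate with 33P-ATP and plate-attached poly(Glu,Tyr) 4:1 or poly(Arg,Ser) 3:1; wash with 0.5% phosphoric acid; count by liquid scintillation.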

Zap-70 = biological target: T3, Zap-70 (Homo sapiens, UniProt P43403); assay: Kinase inhibition assay (33P transfer), Zap-70; conditions: read-out: Zap-1
T3 construct: Kinases are expressed as either kinase domains or full length constructs; made in house
T3 sequence (P43403 1-619): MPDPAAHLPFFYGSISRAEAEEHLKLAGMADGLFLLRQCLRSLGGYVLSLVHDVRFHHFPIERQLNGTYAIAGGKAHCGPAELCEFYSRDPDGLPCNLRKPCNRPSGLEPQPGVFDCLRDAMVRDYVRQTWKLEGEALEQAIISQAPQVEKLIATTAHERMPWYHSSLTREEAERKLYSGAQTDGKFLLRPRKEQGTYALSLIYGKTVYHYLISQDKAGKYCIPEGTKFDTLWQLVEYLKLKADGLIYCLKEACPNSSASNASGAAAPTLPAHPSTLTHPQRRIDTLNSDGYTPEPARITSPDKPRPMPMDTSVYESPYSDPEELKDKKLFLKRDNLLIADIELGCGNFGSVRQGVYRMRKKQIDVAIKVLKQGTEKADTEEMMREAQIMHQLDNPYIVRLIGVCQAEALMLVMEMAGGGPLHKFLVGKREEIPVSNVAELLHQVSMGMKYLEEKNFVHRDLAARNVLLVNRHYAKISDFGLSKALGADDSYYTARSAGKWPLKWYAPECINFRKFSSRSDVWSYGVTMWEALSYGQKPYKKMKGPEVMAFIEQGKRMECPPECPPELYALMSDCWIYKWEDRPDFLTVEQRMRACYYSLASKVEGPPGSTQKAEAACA
How it was run: as §2

AKT = biological target: T4, AKT (Homo sapiens, UniProt Q9Y243); assay: Kinase inhibition assay (33P transfer), AKT; conditions: Table 2, kinase inhibition class; read-out: AKT3-1
T4 construct: Kinases are expressed as either kinase domains or full length constructs; made in house
How it was run: as §2

IGFR-1 = biological target: T5, IGFR-1 (Homo sapiens, UniProt P08069); assay: Kinase inhibition assay, IGFR-1 (Table 2); conditions: Table 2, kinase inhibition class
T5 construct: Kinases are expressed as either kinase domains or full length constructs; made in house

Itk = biological target: T6, Itk (Homo sapiens, UniProt Q08881); assay: Kinase inhibition assay (33P transfer), Itk; conditions: read-out: Itk-1
T6 construct: Kinases are expressed as either kinase domains or full length constructs; made in house
T6 sequence (Q08881 1-620): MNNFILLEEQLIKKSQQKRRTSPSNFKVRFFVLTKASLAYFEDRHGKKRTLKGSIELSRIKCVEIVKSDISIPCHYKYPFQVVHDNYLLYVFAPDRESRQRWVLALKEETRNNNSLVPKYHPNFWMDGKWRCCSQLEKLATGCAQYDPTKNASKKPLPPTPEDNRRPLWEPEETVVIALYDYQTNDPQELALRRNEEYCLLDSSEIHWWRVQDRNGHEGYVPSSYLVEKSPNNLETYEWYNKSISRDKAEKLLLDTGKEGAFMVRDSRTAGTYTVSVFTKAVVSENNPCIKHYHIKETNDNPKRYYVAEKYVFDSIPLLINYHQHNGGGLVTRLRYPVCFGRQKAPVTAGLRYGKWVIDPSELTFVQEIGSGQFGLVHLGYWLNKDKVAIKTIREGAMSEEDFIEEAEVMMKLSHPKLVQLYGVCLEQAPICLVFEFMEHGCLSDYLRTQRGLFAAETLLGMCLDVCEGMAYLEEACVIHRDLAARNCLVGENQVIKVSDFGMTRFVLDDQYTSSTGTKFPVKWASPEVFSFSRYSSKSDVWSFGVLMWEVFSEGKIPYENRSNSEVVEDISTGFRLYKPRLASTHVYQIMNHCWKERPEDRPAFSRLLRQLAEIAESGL
How it was run: as §1

ErbB2 = biological target: T7, ErbB2 (Homo sapiens, UniProt P04626); assay: Kinase inhibition assay (33P transfer), ErbB2; conditions: read-out: ErbB2-2
T7 construct: Kinases are expressed as either kinase domains or full length constructs; made in house
How it was run: as §1

EGFR = biological target: T8, EGFR (Homo sapiens, UniProt P00533); assay: Kinase inhibition assay (33P transfer), EGFR; conditions: Table 2, kinase inhibition class; read-out: EGFR-1
T8 construct: Kinases are expressed as either kinase domains or full length constructs; made in house
How it was run: as §1

Lck = biological target: T9, Lck (Homo sapiens, UniProt P06239); assay: Kinase inhibition assay (33P transfer), Lck; conditions: read-out: Lck-1
T9 construct: Kinases are expressed as either kinase domains or full length constructs; made in house
How it was run: as §2

PDGFRB = biological target: T10, PDGFRB (Homo sapiens, UniProt P09619); assay: Kinase inhibition assay (33P transfer), PDGFRB; conditions: read-out: PDGFRB-1
T10 construct: Kinases are expressed as either kinase domains or full length constructs; made in house

T8 sequence (P00533 25-1210, species assumed): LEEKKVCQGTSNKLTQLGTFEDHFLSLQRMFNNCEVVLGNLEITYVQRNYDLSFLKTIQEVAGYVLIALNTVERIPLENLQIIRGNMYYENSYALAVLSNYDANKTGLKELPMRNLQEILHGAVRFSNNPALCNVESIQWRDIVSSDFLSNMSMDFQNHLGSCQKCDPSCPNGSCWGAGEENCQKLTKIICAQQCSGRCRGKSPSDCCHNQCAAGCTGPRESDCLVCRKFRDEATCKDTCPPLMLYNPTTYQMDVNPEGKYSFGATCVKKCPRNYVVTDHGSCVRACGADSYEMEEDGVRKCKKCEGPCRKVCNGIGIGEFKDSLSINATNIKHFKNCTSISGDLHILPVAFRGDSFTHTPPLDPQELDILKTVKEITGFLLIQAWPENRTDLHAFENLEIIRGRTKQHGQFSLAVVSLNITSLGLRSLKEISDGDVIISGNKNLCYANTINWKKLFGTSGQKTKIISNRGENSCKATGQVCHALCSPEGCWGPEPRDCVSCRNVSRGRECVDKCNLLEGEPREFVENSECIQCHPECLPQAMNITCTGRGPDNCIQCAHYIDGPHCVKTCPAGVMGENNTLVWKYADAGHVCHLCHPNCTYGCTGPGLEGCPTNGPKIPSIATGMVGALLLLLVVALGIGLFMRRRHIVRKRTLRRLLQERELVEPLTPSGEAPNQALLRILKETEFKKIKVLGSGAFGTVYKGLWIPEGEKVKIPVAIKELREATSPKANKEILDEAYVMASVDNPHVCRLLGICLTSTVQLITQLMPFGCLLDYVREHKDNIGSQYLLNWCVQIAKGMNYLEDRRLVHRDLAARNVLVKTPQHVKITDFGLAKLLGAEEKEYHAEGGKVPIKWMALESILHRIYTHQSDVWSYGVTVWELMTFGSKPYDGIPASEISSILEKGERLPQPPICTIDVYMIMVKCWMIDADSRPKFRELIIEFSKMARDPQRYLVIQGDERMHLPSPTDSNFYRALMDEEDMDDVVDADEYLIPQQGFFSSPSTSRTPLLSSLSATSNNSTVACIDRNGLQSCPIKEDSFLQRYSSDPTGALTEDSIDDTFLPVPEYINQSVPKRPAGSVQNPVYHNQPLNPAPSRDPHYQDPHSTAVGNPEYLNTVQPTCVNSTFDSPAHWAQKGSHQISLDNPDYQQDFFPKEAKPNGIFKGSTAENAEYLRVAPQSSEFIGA
T9 sequence (P06239 whole entry, species assumed, the tested form may be a part): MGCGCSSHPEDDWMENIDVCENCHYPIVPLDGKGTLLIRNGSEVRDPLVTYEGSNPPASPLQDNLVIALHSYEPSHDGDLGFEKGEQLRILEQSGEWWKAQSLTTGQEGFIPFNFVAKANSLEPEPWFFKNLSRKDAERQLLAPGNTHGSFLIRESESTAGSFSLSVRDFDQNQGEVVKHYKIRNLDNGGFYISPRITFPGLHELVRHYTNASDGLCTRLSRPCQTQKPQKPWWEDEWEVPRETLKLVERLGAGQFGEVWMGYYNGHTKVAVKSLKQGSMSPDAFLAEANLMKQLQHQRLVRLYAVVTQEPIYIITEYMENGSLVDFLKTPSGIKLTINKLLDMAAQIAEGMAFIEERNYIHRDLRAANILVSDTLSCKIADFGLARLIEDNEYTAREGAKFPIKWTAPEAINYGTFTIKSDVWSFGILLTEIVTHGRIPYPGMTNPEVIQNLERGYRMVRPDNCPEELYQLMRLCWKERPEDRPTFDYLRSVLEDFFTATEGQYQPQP
T5 sequence (P08069 31-1367): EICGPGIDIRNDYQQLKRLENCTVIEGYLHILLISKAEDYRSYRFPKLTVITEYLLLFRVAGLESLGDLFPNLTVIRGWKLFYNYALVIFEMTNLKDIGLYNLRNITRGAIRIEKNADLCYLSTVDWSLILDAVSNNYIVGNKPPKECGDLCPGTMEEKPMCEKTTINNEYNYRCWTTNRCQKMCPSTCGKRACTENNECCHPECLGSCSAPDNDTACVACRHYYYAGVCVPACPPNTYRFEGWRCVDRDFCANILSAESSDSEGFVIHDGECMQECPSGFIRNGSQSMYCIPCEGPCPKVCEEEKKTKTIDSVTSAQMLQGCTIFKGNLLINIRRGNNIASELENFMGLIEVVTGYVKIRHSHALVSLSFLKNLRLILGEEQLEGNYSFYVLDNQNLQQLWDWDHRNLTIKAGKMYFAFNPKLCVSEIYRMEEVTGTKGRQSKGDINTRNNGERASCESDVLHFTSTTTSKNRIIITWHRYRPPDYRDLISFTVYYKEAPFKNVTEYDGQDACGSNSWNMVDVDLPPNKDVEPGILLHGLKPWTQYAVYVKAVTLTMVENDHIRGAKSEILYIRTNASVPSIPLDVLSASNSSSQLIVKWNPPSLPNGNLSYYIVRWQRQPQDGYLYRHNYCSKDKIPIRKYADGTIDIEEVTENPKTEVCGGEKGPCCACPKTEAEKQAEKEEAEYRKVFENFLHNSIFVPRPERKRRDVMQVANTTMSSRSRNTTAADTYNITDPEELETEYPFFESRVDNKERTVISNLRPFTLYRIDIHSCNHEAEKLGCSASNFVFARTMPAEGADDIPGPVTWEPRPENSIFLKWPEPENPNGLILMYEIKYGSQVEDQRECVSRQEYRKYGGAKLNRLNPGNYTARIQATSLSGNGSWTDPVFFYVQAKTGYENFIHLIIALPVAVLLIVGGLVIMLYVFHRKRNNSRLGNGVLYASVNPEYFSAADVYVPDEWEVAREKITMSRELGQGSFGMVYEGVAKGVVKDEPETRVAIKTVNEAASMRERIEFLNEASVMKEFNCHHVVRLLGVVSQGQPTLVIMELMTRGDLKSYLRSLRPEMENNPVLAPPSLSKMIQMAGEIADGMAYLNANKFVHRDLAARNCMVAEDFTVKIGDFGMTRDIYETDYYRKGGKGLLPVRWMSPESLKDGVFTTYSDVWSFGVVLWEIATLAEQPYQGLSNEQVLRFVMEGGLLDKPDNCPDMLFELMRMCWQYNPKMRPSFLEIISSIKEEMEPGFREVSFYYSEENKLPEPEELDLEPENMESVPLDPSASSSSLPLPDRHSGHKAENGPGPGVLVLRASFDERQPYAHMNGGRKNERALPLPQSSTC
T7 sequence (P04626 23-1255, species assumed): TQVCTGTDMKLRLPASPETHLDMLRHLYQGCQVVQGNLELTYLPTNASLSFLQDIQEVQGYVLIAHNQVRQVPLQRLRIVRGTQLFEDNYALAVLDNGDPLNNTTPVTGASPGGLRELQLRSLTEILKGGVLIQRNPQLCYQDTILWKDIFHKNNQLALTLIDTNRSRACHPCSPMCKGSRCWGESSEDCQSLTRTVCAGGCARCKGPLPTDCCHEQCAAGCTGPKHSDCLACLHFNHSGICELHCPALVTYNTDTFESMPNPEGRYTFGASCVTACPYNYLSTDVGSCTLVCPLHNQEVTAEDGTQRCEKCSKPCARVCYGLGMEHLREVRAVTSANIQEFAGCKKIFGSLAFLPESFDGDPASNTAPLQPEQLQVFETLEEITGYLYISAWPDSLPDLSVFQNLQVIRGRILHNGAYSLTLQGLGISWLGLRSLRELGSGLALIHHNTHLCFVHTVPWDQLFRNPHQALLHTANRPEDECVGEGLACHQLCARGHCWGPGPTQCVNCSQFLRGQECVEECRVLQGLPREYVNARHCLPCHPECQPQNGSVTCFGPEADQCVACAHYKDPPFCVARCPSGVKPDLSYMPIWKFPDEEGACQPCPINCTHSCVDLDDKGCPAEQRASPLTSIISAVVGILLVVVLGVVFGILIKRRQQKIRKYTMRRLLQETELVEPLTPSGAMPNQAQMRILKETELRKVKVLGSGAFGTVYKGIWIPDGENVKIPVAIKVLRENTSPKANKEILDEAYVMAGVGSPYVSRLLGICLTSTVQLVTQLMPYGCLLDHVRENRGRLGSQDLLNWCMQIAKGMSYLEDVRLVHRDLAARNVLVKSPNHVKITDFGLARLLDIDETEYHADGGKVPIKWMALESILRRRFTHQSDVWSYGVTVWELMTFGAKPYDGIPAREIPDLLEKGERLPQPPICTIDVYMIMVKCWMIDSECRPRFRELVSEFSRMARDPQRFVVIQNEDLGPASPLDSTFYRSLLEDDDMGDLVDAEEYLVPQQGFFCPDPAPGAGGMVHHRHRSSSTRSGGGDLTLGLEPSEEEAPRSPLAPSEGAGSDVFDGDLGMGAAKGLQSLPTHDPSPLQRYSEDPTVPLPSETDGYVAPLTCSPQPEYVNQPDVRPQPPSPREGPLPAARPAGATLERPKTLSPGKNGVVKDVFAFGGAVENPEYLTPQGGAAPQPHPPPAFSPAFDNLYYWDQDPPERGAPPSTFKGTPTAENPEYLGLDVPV
T4 sequence (Q9Y243 whole entry, the tested form may be a part): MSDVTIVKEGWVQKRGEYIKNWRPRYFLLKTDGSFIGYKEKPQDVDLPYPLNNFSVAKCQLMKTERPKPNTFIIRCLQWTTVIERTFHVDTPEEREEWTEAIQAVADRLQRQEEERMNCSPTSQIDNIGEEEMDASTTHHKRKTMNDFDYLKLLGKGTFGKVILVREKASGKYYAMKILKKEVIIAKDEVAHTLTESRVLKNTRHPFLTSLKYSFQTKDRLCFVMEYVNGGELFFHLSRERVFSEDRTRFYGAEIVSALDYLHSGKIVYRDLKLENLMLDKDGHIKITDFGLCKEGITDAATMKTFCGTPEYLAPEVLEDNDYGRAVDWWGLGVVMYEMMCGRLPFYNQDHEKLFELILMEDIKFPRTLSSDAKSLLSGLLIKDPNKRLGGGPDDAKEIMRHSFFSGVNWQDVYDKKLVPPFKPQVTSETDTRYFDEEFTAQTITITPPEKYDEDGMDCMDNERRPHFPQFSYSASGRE

| IC50 (c-Met) | IC50 (Kdr) | IC50 (Zap-70) | IC50 (AKT) | IC50 (IGFR-1) | IC50 (Itk) | IC50 (ErbB2) | IC50 (EGFR) | IC50 (Lck) | IC50 (PDGFRB) | Compound |
| --- | --- | --- | --- | --- | --- | --- | --- | --- | --- | --- |
| 5.46 to 7.97 µM | 0.91 to 5.46 µM | > 10.2 µM | 7.97 to 10.2 µM | < 0.91 µM | 7.97 to 10.2 µM | 5.46 to 7.97 µM | < 0.91 µM | 0.91 to 5.46 µM | 0.91 to 5.46 µM | COc1cc(Nc2ncnc(Nc3cc(C(F)(F)F)ccc3F)n2)cc(OC)c1OC [Compound 618] |
| > 12.7 µM | > 12.7 µM | > 12.7 µM | > 12.7 µM | > 12.7 µM | > 12.7 µM | > 12.7 µM | > 12.7 µM | > 12.7 µM | > 12.7 µM | Cc1ccc2c(c1)CCCN2c1ncnc(NCCN2CCOCC2)n1 [Compound 776] |
| > 11.2 µM | 0.995 to 5.97 µM | > 11.2 µM | > 11.2 µM | 0.995 to 5.97 µM | > 11.2 µM | < 0.995 µM | < 0.995 µM | < 0.995 µM | < 0.995 µM | COc1cc(Nc2ncnc(Nc3cc(Cl)ccc3C)n2)cc(OC)c1OC [Compound 625] |
| > 8.59 µM | 0.764 to 4.58 µM | > 8.59 µM | > 8.59 µM | 6.68 to 8.59 µM | > 8.59 µM | 0.764 to 4.58 µM | 6.68 to 8.59 µM | 4.58 to 6.68 µM | 4.58 to 6.68 µM | COc1cc(Nc2ncnc(-n3c(NC4CCCc5ccccc54)nc4ccccc43)n2)cc(OC)c1OC (centres unmarked) [Compound 1043] |
| > 12.9 µM | > 12.9 µM | > 12.9 µM | > 12.9 µM | > 12.9 µM | 10 to 12.9 µM | > 12.9 µM | > 12.9 µM | > 12.9 µM | 10 to 12.9 µM | Cc1ccc2c(c1)CCCN2c1ncnc(NCCCn2ccnc2)n1 [Compound 772] |
| > 13.2 µM | > 13.2 µM | > 13.2 µM | > 13.2 µM | > 13.2 µM | > 13.2 µM | 1.17 to 7.02 µM | < 1.17 µM | 7.02 to 10.2 µM | 7.02 to 10.2 µM | COc1cccc(Nc2ncnc(N(C)c3cccc(Cl)c3)n2)c1 [Compound 741] |
| > 13.4 µM | > 13.4 µM | > 13.4 µM | > 13.4 µM | > 13.4 µM | > 13.4 µM | > 13.4 µM | 1.19 to 7.17 µM | > 13.4 µM | > 13.4 µM | CCN(CC)CCNc1ncnc(N(C)c2cccc(Cl)c2)n1 [Compound 745] |
| 1.03 to 6.16 µM | 6.16 to 8.98 µM | > 11.5 µM | > 11.5 µM | > 11.5 µM | > 11.5 µM | 1.03 to 6.16 µM | < 1.03 µM | 1.03 to 6.16 µM | 1.03 to 6.16 µM | CN(c1cccc(Cl)c1)c1ncnc(Nc2ccc(S(C)(=O)=O)cc2)n1 [Compound 749] |
| > 8.9 µM | > 8.9 µM | > 8.9 µM | > 8.9 µM | > 8.9 µM | > 8.9 µM | > 8.9 µM | > 8.9 µM | > 8.9 µM | > 8.9 µM | CN1CCN(Cc2cccc(Nc3ncnc(Nc4ccc5c(cnn5Cc5ccccc5)c4)n3)c2)CC1 [Compound 552] |
| 0.804 to 4.82 µM | < 0.804 µM | > 9.04 µM | > 9.04 µM | 7.03 to 9.04 µM | > 9.04 µM | < 0.804 µM | < 0.804 µM | < 0.804 µM | 0.804 to 4.82 µM | COc1cc(Nc2ncnc(N(C)c3ccc4c(cnn4Cc4ccccc4)c3)n2)cc(OC)c1OC [Compound 566] |
| > 10.4 µM | < 0.923 µM | > 10.4 µM | > 10.4 µM | 0.923 to 5.54 µM | > 10.4 µM | > 10.4 µM | > 10.4 µM | < 0.923 µM | < 0.923 µM | C=CCNc1nc2ccccc2n1-c1ncnc(Nc2cc(OC)c(OC)c(OC)c2)n1 [Compound 574] |
| > 10.8 µM | > 10.8 µM | > 10.8 µM | > 10.8 µM | > 10.8 µM | > 10.8 µM | > 10.8 µM | 5.77 to 8.42 µM | > 10.8 µM | > 10.8 µM | COc1cc(CNc2ncnc(N(C)c3cccc(Cl)c3)n2)cc(OC)c1OC [Compound 747] |
| 0.879 to 5.28 µM | 0.879 to 5.28 µM | > 9.89 µM | > 9.89 µM | 7.69 to 9.89 µM | > 9.89 µM | 0.879 to 5.28 µM | < 0.879 µM | 0.879 to 5.28 µM | 0.879 to 5.28 µM | CN(c1cccc(Cl)c1)c1ncnc(Nc2cccc(CNC(=O)O[C@@H]3CCOC3)c2)n1 [Compound 721] |
| 0.782 to 4.69 µM | < 0.782 µM | > 8.8 µM | > 8.8 µM | > 8.8 µM | > 8.8 µM | > 8.8 µM | > 8.8 µM | 0.782 to 4.69 µM | 0.782 to 4.69 µM | COc1cc(Nc2ncnc(-n3c(Nc4ccccc4C(C)C)nc4ccccc43)n2)cc(OC)c1OC [Compound 1049] |
| > 8.53 µM | 0.758 to 4.55 µM | > 8.53 µM | 4.55 to 6.63 µM | > 8.53 µM | > 8.53 µM | 0.758 to 4.55 µM | > 8.53 µM | 6.63 to 8.53 µM | 6.63 to 8.53 µM | COc1cc(Nc2ncnc(-n3c(NCc4ccc5c(c4)OCO5)nc4ccccc43)n2)cc(OC)c1OC [Compound 595] |
| 0.839 to 5.04 µM | < 0.839 µM | 5.04 to 7.35 µM | 5.04 to 7.35 µM | 0.839 to 5.04 µM | 0.839 to 5.04 µM | 0.839 to 5.04 µM | 0.839 to 5.04 µM | 0.839 to 5.04 µM | 0.839 to 5.04 µM | c1ccc(CNc2nc3ccccc3n2-c2ncnc(Nc3cccc(Cc4nnn[nH]4)c3)n2)nc1 [Compound 958] |
| 0.799 to 4.79 µM | 0.799 to 4.79 µM | 0.799 to 4.79 µM | 0.799 to 4.79 µM | 0.799 to 4.79 µM | 0.799 to 4.79 µM | 0.799 to 4.79 µM | 0.799 to 4.79 µM | 0.799 to 4.79 µM | 0.799 to 4.79 µM | CNS(=O)(=O)Cc1ccc(Nc2ncnc(Nc3ccc4c(cnn4Cc4ccccc4)c3)n2)cc1 [Compound 736] |
| > 13 µM | 6.91 to 10.1 µM | > 13 µM | > 13 µM | > 13 µM | > 13 µM | > 13 µM | > 13 µM | > 13 µM | > 13 µM | COc1ccc(N(C)c2ncnc(-n3c(N)nc4ccccc43)n2)cc1 [Compound 663] |
| > 10.2 µM | 7.97 to 10.2 µM | > 10.2 µM | > 10.2 µM | 0.91 to 5.46 µM | > 10.2 µM | 0.91 to 5.46 µM | < 0.91 µM | 0.91 to 5.46 µM | 0.91 to 5.46 µM | COc1cc(Nc2ncnc(Nc3cc(F)cc(C(F)(F)F)c3)n2)cc(OC)c1OC [Compound 632] |
| 6.17 to 7.93 µM | > 7.93 µM | > 7.93 µM | > 7.93 µM | > 7.93 µM | > 7.93 µM | 4.23 to 6.17 µM | > 7.93 µM | > 7.93 µM | > 7.93 µM | COc1cc(Nc2ncnc(-n3c(NCc4ccc(OC(F)(F)F)cc4)nc4ccccc43)n2)cc(OC)c1OC [Compound 571] |
